Results taken from patent US20080255128A1, “PHTHALAZINONE DERIVATIVES” (priority 2007, published 2008).
“Also recorded” adds a separate entry of the source.

Assay: Stereochemical stability of separated isomers on standing in solution
Assay type: physicochemical
Conditions: after separation by chiral HPLC
Procedure: has a chiral centre where indicated. This racemic mixture was separated using chiral preparative HPLC.
This separation was carried out on a Rainin prep machine (200 ml heads) using a Merck 100 mm 20 μm Chiralpak AD column. The Eluent was a mixture of i-hexane, ethanol and methanol (70:15:15), which was flowed at a rate of 190 ml/min. The analaysis was carried out with a wavelength of 215 nm. Complete separation of the two isomers was achieved using a sample concentration of 12.5 mg/ml, an injection volumn of 40 ml and a run time of 3 hours.

## CC1C(=O)N(c2cc(Cc3n[nH]c(=O)c4ccccc34)ccc2F)C(=O)N1CCN1CCCC1 (racemic) [Compound 9, 3-(2-fluoro-5-((4-oxo-3,4-dihydrophthalazin-1-yl)methyl)phenyl)-5-methyl-1-(2-(pyrrolidin-1-yl)ethyl)imidazolidine-2,4-dione]
  stereochemical stability in solution: epimerise on standing in solution; also recorded: racemises
